# Patent US10765114B2, “4-amino-6-(pyridyl and 2-substitutedphenyl)-picolinates and 6-amino-2-(pyridyl and 2-substitutedphenyl)-pyrimidine-4-carboxylates and their use as herbicides” (Dow AgroSciences LLC, priority 2013, dated 2020)
# Experiments:
# Assay in all cases: Post-Emergent Test III (Wheat and Barley)
# APESV (windgrass) = type: in vivo, Apera spica-venti; conditions: for pest or weed control at 35 g/ha / pest or weed control at 70 g/ha / pest or weed control at 140 g/ha: Apera spica-venti, post-emergence, 504 h, postemergence, read-out: Visual Growth Reduction (%) 21 Days After Application, APESV; for pest or weed control at 35 g/ha: 35 g ai/ha; for pest or weed control at 70 g/ha: 70 g ai/ha; for pest or weed control at 140 g/ha: 140 g ai/ha; for GR50, APESV: effective dose for growth reduction of 50 percent; for GR50, APESV / GR80, APESV: probit analysis; for GR80, APESV: effective dose for growth reduction of 80 percent
# Description: (§1) Seeds of the desired test plant species were planted in Sun Gro MetroMix® 306 planting mixture, which typically has a pH of 6.0 to 6.8 and an organic matter content of about 30 percent, in plastic pots with a surface area of 103.2 square centimeters (cm^2). When required to ensure good germination and healthy plants, a fungicide treatment and/or other chemical or physical treatment was applied. The plants were grown for 7-36 days in a greenhouse with an approximate 14 h photoperiod which was maintained at about 18° C. during the day and 17° C. during the night. Nutrients and water were added on a regular basis and supplemental lighting was provided with overhead metal halide 1000-Watt lamps as necessary. The plants were employed for testing when they reached the second or third true leaf stage.
# (§2) A weighed amount, determined by the highest rate to be tested, of each test compound was placed in a 25 mL glass vial and was dissolved in 4 mL of a 97:3 v/v mixture of acetone and DMSO to obtain concentrated stock solutions. […] The concentrated stock solutions obtained were diluted with 20 mL of an aqueous mixture containing acetone, water, isopropyl alcohol, DMSO, Agri-Dex crop oil concentrate, and X-77 surfactant in a 48:39:10:1.5:1.5:0.02 v/v ratio to obtain spray solutions containing the highest application rates. Additional application rates were obtained by serial dilution of 12 mL of the high rate solution into a solution containing 2 mL of 97:3 v/v mixture of acetone and DMSO and 10 mL of an aqueous mixture containing acetone, water, isopropyl alcohol, DMSO, Agri-Dex crop oil concentrate, and X-77 surfactant in a 48:39:10:1.5:1.5:0.02 v/v ratio to obtain ½×, ¼×, ⅛× and 1/16× rates of the high rate. Compound requirements are based upon a 12 mL application volume at a rate of 187 liters per hectare (L/ha). Formulated compounds were applied to the plant material with an overhead Mandel track sprayer equipped with 8002E nozzles calibrated to deliver 187 L/ha over an application area of 0.503 square meters at a spray height of 18 inches (43 cm) above the average plant canopy height. Control plants were sprayed in the same manner with the solvent blank.
# (§3) The treated plants and control plants were placed in a greenhouse as described above and watered by subirrigation to prevent wash-off of the test compounds. After 21 dAYS, the condition of the test plants as compared with that of the untreated plants was determined visually and scored on a scale of 0 to 100 percent where 0 corresponds to no injury and 100 corresponds to complete kill and presented as indicated in Table A.
# (§4) By applying the well-accepted probit analysis as described by J. Berkson in Journal of the American Statistical Society, 48, 565 (1953) and by D. Finney in “Probit Analysis” Cambridge University Press (1952), herbicidal injury of a specific compound at various rates can be used to calculate GR10, GR20, GR50, GR80 and GR90 values, which are defined as growth reduction factors that correspond to the effective dose of herbicide required to provide plant growth reduction (GR) of 10 percent, 20 percent, 50 percent, 80 percent and 90 percent, respectively. Probit analysis was applied to data collected from multiple dose rates of individual compounds utilizing the procedures explained in the following examples. The analysis of those dose rates is captured in the following tables.
# KCHSC (kochia) = type: in vivo, Kochia scoparia; conditions: for pest or weed control at 35 g/ha / pest or weed control at 70 g/ha / pest or weed control at 140 g/ha: Bassia scoparia, post-emergence, 504 h, postemergence, read-out: Visual Growth Reduction (%) 21 Days After Application, KCHSC; for pest or weed control at 35 g/ha: 35 g ai/ha; for pest or weed control at 70 g/ha: 70 g ai/ha; for pest or weed control at 140 g/ha: 140 g ai/ha; for GR50, KCHSC: effective dose for growth reduction of 50 percent; for GR50, KCHSC / GR80, KCHSC: probit analysis; for GR80, KCHSC: effective dose for growth reduction of 80 percent
# Description: as §1, §2, §3, §4
# LOLSS = type: in vivo; conditions: for GR50, LOLSS: effective dose for growth reduction of 50 percent; for GR50, LOLSS / GR80, LOLSS: probit analysis; for GR80, LOLSS: effective dose for growth reduction of 80 percent; for pest or weed control at 35 g/ha / pest or weed control at 70 g/ha / pest or weed control at 140 g/ha: post-emergence, 504 h, postemergence, read-out: Visual Growth Reduction (%) 21 Days After Application, LOLSS; for pest or weed control at 35 g/ha: 35 g ai/ha; for pest or weed control at 70 g/ha: 70 g ai/ha; for pest or weed control at 140 g/ha: 140 g ai/ha
# Description: as §1, §2, §3, §4
# TRZSS = type: in vivo; conditions: for pest or weed control at 35 g/ha / pest or weed control at 70 g/ha / pest or weed control at 140 g/ha: Triticum aestivum, post-emergence, 504 h, postemergence, read-out: Visual Growth Reduction (%) 21 Days After Application, TRZSS; for pest or weed control at 35 g/ha: 35 g ai/ha; for pest or weed control at 70 g/ha: 70 g ai/ha; for pest or weed control at 140 g/ha: 140 g ai/ha; for GR20, TRZSS: effective dose for growth reduction of 20 percent, probit analysis
# Description: as §1, §2, §3, §4
# HORSS = type: in vivo; conditions: for pest or weed control at 35 g/ha / pest or weed control at 70 g/ha / pest or weed control at 140 g/ha: Hordeum vulgare, post-emergence, 504 h, postemergence, read-out: Visual Growth Reduction (%) 21 Days After Application, HORSS; for pest or weed control at 35 g/ha: 35 g ai/ha; for pest or weed control at 70 g/ha: 70 g ai/ha; for pest or weed control at 140 g/ha: 140 g ai/ha; for GR20, HORSS: effective dose for growth reduction of 20 percent, probit analysis
# Description: as §1, §2, §3, §4
# ALOMY (blackgrass) = type: in vivo, Alopecurus myosuroides; conditions: for pest or weed control at 35 g/ha / pest or weed control at 70 g/ha / pest or weed control at 140 g/ha: Alopecurus myosuroides, post-emergence, 504 h, postemergence, read-out: Visual Growth Reduction (%) 21 Days After Application, ALOMY; for pest or weed control at 35 g/ha: 35 g ai/ha; for pest or weed control at 70 g/ha: 70 g ai/ha; for pest or weed control at 140 g/ha: 140 g ai/ha; for GR50, ALOMY: effective dose for growth reduction of 50 percent; for GR50, ALOMY / GR80, ALOMY: probit analysis; for GR80, ALOMY: effective dose for growth reduction of 80 percent
# Description: as §1, §2, §3, §4
Structure (SMILES),pest or weed control at 35 g/ha (APESV (windgrass)),pest or weed control at 70 g/ha (APESV (windgrass)),"GR50, APESV (APESV (windgrass))","GR80, APESV (APESV (windgrass))",pest or weed control at 35 g/ha (KCHSC (kochia)),pest or weed control at 70 g/ha (KCHSC (kochia)),"GR50, KCHSC (KCHSC (kochia))","GR80, KCHSC (KCHSC (kochia))",pest or weed control at 35 g/ha (LOLSS),pest or weed control at 70 g/ha (LOLSS),pest or weed control at 35 g/ha (TRZSS),pest or weed control at 70 g/ha (TRZSS),"GR20, TRZSS (TRZSS)",pest or weed control at 35 g/ha (HORSS),pest or weed control at 70 g/ha (HORSS),"GR20, HORSS (HORSS)",pest or weed control at 35 g/ha (ALOMY (blackgrass)),pest or weed control at 70 g/ha (ALOMY (blackgrass)),"GR50, ALOMY (ALOMY (blackgrass))","GR80, ALOMY (ALOMY (blackgrass))",also measured
COC(=O)c1nc(-c2ccc(Cl)c(F)c2OC)cc(N)c1Cl [Compound 20],0 to 29%,60 to 74%,117 g ai/ha,>140 g ai/ha,85 to 94%,95 to 100%,2 g ai/ha,10 g ai/ha,0 to 29%,0 to 29%,85 to 94%,85 to 94%,2 g ai/ha,45 to 59%,75 to 84%,7 g ai/ha,45 to 59%,75 to 84%,86 g ai/ha,>140 g ai/ha,"pest or weed control at 140 g/ha (APESV (windgrass)): 75 to 84%; pest or weed control at 140 g/ha (KCHSC (kochia)): 95 to 100%; GR50, LOLSS (LOLSS): >140 g ai/ha; GR80, LOLSS (LOLSS): >140 g ai/ha; pest or weed control at 140 g/ha (LOLSS): 30 to 44%; pest or weed control at 140 g/ha (TRZSS): 85 to 94%; pest or weed control at 140 g/ha (HORSS): 85 to 94%; pest or weed control at 140 g/ha (ALOMY (blackgrass)): 85 to 94%"
Nc1c(Cl)c(C(=O)O)nc(-c2ccc(C(F)(F)F)nc2)c1Cl [Compound 33],0 to 29%,60 to 74%,70 g ai/ha,134 g ai/ha,0 to 29%,45 to 59%,95 g ai/ha,>140 g ai/ha,0 to 29%,0 to 29%,75 to 84%,75 to 84%,1 g ai/ha,75 to 84%,85 to 94%,1 g ai/ha,60 to 74%,75 to 84%,37 g ai/ha,72 g ai/ha,"pest or weed control at 140 g/ha (APESV (windgrass)): 60 to 74%; pest or weed control at 140 g/ha (KCHSC (kochia)): 60 to 74%; GR50, LOLSS (LOLSS): >140 g ai/ha; GR80, LOLSS (LOLSS): >140 g ai/ha; pest or weed control at 140 g/ha (LOLSS): 30 to 44%; pest or weed control at 140 g/ha (TRZSS): 85 to 94%; pest or weed control at 140 g/ha (HORSS): 85 to 94%; pest or weed control at 140 g/ha (ALOMY (blackgrass)): 85 to 94%"
"Nc1c(F)c(-c2ccc(C3CC3)nc2)nc(C(=O)O)c1Cl [Compound 36, 4-amino-5-chloro-6′-cyclopropyl-3-fluoro-[2,3′-bipyridine]-6-carboxylic acid]",45 to 59%,85 to 94%,24 g ai/ha,53 g ai/ha,45 to 59%,60 to 74%,34 g ai/ha,108 g ai/ha,45 to 59%,45 to 59%,60 to 74%,75 to 84%,1 g ai/ha,60 to 74%,75 to 84%,1 g ai/ha,0 to 29%,30 to 44%,126 g ai/ha,>140 g ai/ha,"GR50, LOLSS (LOLSS): 44 g ai/ha; GR80, LOLSS (LOLSS): 131 g ai/ha"
"COC(=O)c1nc(-c2ccc(Cl)c(F)c2OC)c(F)c(N)c1Cl [Compound 39, methyl 4-amino-3-chloro-6-(4-chloro-3-fluoro-2-methoxyphenyl)-5-fluoropicolinate]",30 to 44%,60 to 74%,75 g ai/ha,>140 g ai/ha,85 to 94%,95 to 100%,6 g ai/ha,21 g ai/ha,0 to 29%,0 to 29%,85 to 94%,95 to 100%,11 g ai/ha,30 to 44%,60 to 74%,23 g ai/ha,0 to 29%,30 to 44%,>140 g ai/ha,>140 g ai/ha,pest or weed control at 140 g/ha (APESV (windgrass)): 60 to 74%; pest or weed control at 140 g/ha (KCHSC (kochia)): 95 to 100%; pest or weed control at 140 g/ha (LOLSS): 0 to 29%; pest or weed control at 140 g/ha (TRZSS): 95 to 100%; pest or weed control at 140 g/ha (HORSS): 75 to 84%; pest or weed control at 140 g/ha (ALOMY (blackgrass)): 30 to 44%
